Results as given in PubChem BioAssay AID192 (DTP/NCI, 2004).
“And” between values parts separate entries of the source, which are not always exact repeats. Identical values can stand only once. Toxic doses and inconclusive results are not listed. Peptide text beside a SMILES is read from it.

Test system: BDF1 mice, B16 melanoma ip, median survival T/C
Assay: NCI In Vivo Anticancer Drug Screen. Data for tumor model B16 Melanoma (intraperitoneal) in B6D2F1 (BDF1) mice
Settings: endpoint: median survival time, higher = longer survival
Procedure: The antitumor activity of compounds was measured in mice bearing transplantable tumors. Survival or tumor size were measured and the results are expressed as the measurement made in the treated group (T) divided by the measurement made in the vehicle treated control group (C). The tumor model used in this assay is B16 Melanoma (intraperitoneal) in B6D2F1 (BDF1) mice

[1] = dose: 0.75 mg/kg/injection, schedule: Q01DX009 (ip), vehicle: saline
[2] = dose: 12.5 mg/kg/injection, schedule: Q01DX009 (ip), vehicle: Klucel (hydroxypropylcellulose) (HPC)
[3] = dose: 12.5 mg/kg/injection, schedule: Q01DX009 (ip), vehicle: saline with Tween-80
[4] = dose: 25.0 mg/kg/injection, schedule: Q01DX009 (ip), vehicle: Klucel (hydroxypropylcellulose) (HPC)
[5] = dose: 25.0 mg/kg/injection, schedule: Q01DX009 (ip), vehicle: saline with Tween-80
[6] = dose: 50.0 mg/kg/injection, schedule: Q01DX009 (ip), vehicle: saline with Tween-80
[7] = dose: 100.0 mg/kg/injection, schedule: Q01DX009 (ip), vehicle: Klucel (hydroxypropylcellulose) (HPC)
[8] = dose: 100.0 mg/kg/injection, schedule: Q01DX009 (ip), vehicle: saline with Tween-80
[9] = dose: 200.0 mg/kg/injection, schedule: Q01DX009 (ip), vehicle: Klucel (hydroxypropylcellulose) (HPC)
[10] = dose: 200.0 mg/kg/injection, schedule: Q01DX009 (ip), vehicle: saline with Tween-80
[11] = dose: 50.0 mg/kg/injection, schedule: Q01DX009 (ip), vehicle: Klucel (hydroxypropylcellulose) (HPC)
[12] = dose: 6.25 mg/kg/injection, schedule: Q01DX009 (ip), vehicle: saline with Tween-80

For `NC(=O)c1cn(C2OC(CO)C(O)C2O)c2ncnc(N)c12` (centres undefined), the T/C (dose: 0.09 mg/kg/injection, schedule: Q01DX009 (ip), vehicle: saline) was 100 % of control, the T/C (dose: 0.12 mg/kg/injection, schedule: Q01DX009 (ip), vehicle: water) was 93 % of control and the T/C (dose: 0.13 mg/kg/injection, schedule: Q01DX009 (ip), vehicle: saline) was 97 % of control. The T/C (dose: 0.19 mg/kg/injection, schedule: Q01DX009 (ip), vehicle: saline) was 105 % of control, the T/C (dose: 0.25 mg/kg/injection, schedule: Q01DX009 (ip), vehicle: saline) was 102 % of control and the T/C (dose: 0.25 mg/kg/injection, schedule: Q01DX009 (ip), vehicle: water) was 106 % of control. For the same molecule, the T/C (dose: 0.38 mg/kg/injection, schedule: Q01DX009 (ip), vehicle: saline) was 105 % of control, the T/C (dose: 0.5 mg/kg/injection, schedule: Q01DX009 (ip), vehicle: saline) was 102 % of control and the T/C [1] was 114 % of control.
In the case of `Cc1ccc(Cl)cc1NC(=O)c1ccccc1`, the T/C (dose: 75.0 mg/kg/injection, schedule: Q01DX009 (ip), vehicle: Klucel (hydroxypropylcellulose) (HPC)) is reported as 93 % of control, the T/C (dose: 150.0 mg/kg/injection, schedule: Q01DX009 (ip), vehicle: Klucel (hydroxypropylcellulose) (HPC)) is reported as 104 % of control and the T/C (dose: 300.0 mg/kg/injection, schedule: Q01DX009 (ip), vehicle: Klucel (hydroxypropylcellulose) (HPC)) is reported as 105 % of control.
For `CCC1(O)CC(OC2CC(N(C)C)C(OC3CC4OC5CC(=O)C(C)OC5OC4C(C)O3)C(C)O2)c2c(cc3c(c2O)C(=O)c2c(O)ccc(O)c2C3=O)C1C(=O)OC` (centres undefined), the T/C [1] was 88 % of control, the T/C (dose: 0.75 mg/kg/injection, schedule: Q04DX003 (ip), vehicle: saline) was 97 % of control and the T/C (dose: 1.5 mg/kg/injection, schedule: Q01DX009 (ip), vehicle: saline) was 105 % of control. For the same molecule, the T/C (dose: 1.5 mg/kg/injection, schedule: Q04DX003 (ip), vehicle: saline) was 88 % of control and the T/C (dose: 3.0 mg/kg/injection, schedule: Q04DX003 (ip), vehicle: saline) was 97 % of control.
With `CCOC(=O)C1C2OC(=O)C(C(=O)C2CN(CCCl)CCCl)C1C1CC=C(CC2=CCC(C3C4C(=O)OC(C(CN(CCCl)CCCl)C4=O)C3C(=O)OCC)CC2)CC1` (centres undefined) the T/C [2] was 107 % of control, the T/C [3] was 113 % of control and the T/C [4] was 118 % of control. The T/C [5] was 119 % of control, the T/C [6] was 150 % of control and the T/C [7] was 153 % of control. The T/C [8] was 174 % of control.
`COC(=O)CCNCc1ccccc1` was tested, and the T/C [7] was 100 % of control, the T/C [9] was 96 % of control and the T/C (dose: 400.0 mg/kg/injection, schedule: Q01DX009 (ip), vehicle: Klucel (hydroxypropylcellulose) (HPC)) was 93 % of control.
`CC(Cc1ccccc1)NN` (centres undefined) was tested, and the T/C (dose: 0.97 mg/kg/injection, schedule: Q01DX009 (ip), vehicle: saline) was 110 % of control, the T/C (dose: 1.95 mg/kg/injection, schedule: Q01DX009 (ip), vehicle: saline) was 112 % of control and the T/C (dose: 3.9 mg/kg/injection, schedule: Q01DX009 (ip), vehicle: saline) was 102 % of control. The T/C (dose: 7.81 mg/kg/injection, schedule: Q01DX009 (ip), vehicle: saline) was 112 % of control.
For `CC1CC(=O)c2ccccc2N1S(C)(=O)=O` (centres undefined), the T/C (dose: 100.0 mg/kg/injection, schedule: Q04DX003 (ip), vehicle: Klucel (hydroxypropylcellulose) (HPC)) was 102 % of control, the T/C (dose: 200.0 mg/kg/injection, schedule: Q04DX003 (ip), vehicle: Klucel (hydroxypropylcellulose) (HPC)) was 100 % of control and the T/C (dose: 400.0 mg/kg/injection, schedule: Q04DX003 (ip), vehicle: Klucel (hydroxypropylcellulose) (HPC)) was 95 % of control.
For `CC(=O)CC(=O)Nc1ccc(-c2ccc(NC(=O)CC(C)=O)c(Cl)c2)cc1Cl`, the T/C [7] was 87 % of control and the T/C [9] was 87 % of control.
In the case of `CC(=O)NC(CO)C(=O)c1ccc(S(=O)(=O)c2ccccc2)cc1` (centres undefined), the T/C [8] is reported as 102 % of control and the T/C [10] is reported as 93 % of control.
`CCCCCCCCCCCCCCCC(=O)N(CCC#N)C(C)(C)CCC(C)(C)N(CCC#N)C(=O)CCCCCCCCCCCCCCC` was tested, and the T/C [4] was 90 % of control, the T/C [11] was 98 % of control and the T/C [7] was 91 % of control.
In the case of `O=C(C=C(C(F)(F)F)C(F)(F)F)c1cccc([N+](=O)[O-])c1`, the T/C (dose: 0.2 mg/kg/injection, schedule: Q01DX009 (ip), vehicle: saline) is reported as 95 % of control, the T/C (dose: 0.4 mg/kg/injection, schedule: Q01DX009 (ip), vehicle: saline) is reported as 102 % of control and the T/C (dose: 0.8 mg/kg/injection, schedule: Q01DX009 (ip), vehicle: saline) is reported as 95 % of control. For the same molecule, the T/C [12] was 86 % of control, the T/C (dose: 6.25 mg/kg/injection, schedule: Q04DX003 (ip), vehicle: saline with Tween-80) was 113 % of control and the T/C (dose: 25.0 mg/kg/injection, schedule: Q04DX003 (ip), vehicle: saline with Tween-80) was 111 % of control.
`CC1CCCC(C)N1C1=NCCO1` (centres undefined) was tested, and the T/C (dose: 5.0 mg/kg/injection, schedule: Q01DX009 (ip), vehicle: saline with Tween-80) was 100 % of control, the T/C (dose: 5.0 mg/kg/injection, schedule: Q04DX003 (ip), vehicle: saline with Tween-80) was 100 % of control and the T/C (dose: 10.0 mg/kg/injection, schedule: Q01DX009 (ip), vehicle: saline with Tween-80) was 112 % of control. The T/C (dose: 10.0 mg/kg/injection, schedule: Q04DX003 (ip), vehicle: saline with Tween-80) was 97 % of control, the T/C (dose: 20.0 mg/kg/injection, schedule: Q01DX009 (ip), vehicle: saline with Tween-80) was 92 % of control and the T/C (dose: 20.0 mg/kg/injection, schedule: Q04DX003 (ip), vehicle: saline with Tween-80) was 100 % of control.
`ClC(Cl)(Cl)c1nc2nccnc2[nH]1` was tested, and the T/C (dose: 3.13 mg/kg/injection, schedule: Q01DX009 (ip), vehicle: saline with Tween-80) was 102 % of control, the T/C [12] was 94 % of control and the T/C [3] was 105 % of control. The T/C [5] was 91 % of control.
For `O=C(O)COc1ccc([N+](=O)[O-])cc1`, the T/C [8] was 96 % of control and the T/C [10] was 87 % of control.
In the case of `NC(CCC(=O)O)C(=O)NC(CCC(=O)O)C(=O)O` (stereo not drawn) (H-Glu-Glu-OH; configuration not given here), the T/C (dose: 50.0 mg/kg/injection, schedule: Q01DX009 (ip), vehicle: saline) is reported as 97 % of control, the T/C (dose: 100.0 mg/kg/injection, schedule: Q01DX009 (ip), vehicle: saline) is reported as 96 % of control and the T/C (dose: 200.0 mg/kg/injection, schedule: Q01DX009 (ip), vehicle: saline) is reported as 93 % of control. For the same molecule, the T/C (dose: 400.0 mg/kg/injection, schedule: Q01DX009 (ip), vehicle: saline) was 91 % of control.
`Cc1noc2nccnc12` was tested, and the T/C [3] was 92 % of control, the T/C [5] was 95 % of control and the T/C [6] was 88 % of control.
With `CNC1C(OC2C(OC3C(O)C(O)C(N=C(N)N)C(O)C3N=C(N)N)OC(C)C2(O)C=O)OC(CO)C(O)C1O` (centres undefined) the T/C (dose: 100.0 mg/kg/injection, schedule: Q01DX009 (ip), vehicle: water) was 110 % of control and the T/C (dose: 200.0 mg/kg/injection, schedule: Q01DX009 (ip), vehicle: water) was 108 % of control.
With `O=C(Nc1ccc(Cl)cc1)c1cccnc1` the T/C [6] was 101 % of control, the T/C [8] was 106 % of control and the T/C [10] was 94 % of control.
`FC(F)(F)S.[Hg]` was tested, and the T/C (dose: 1.25 mg/kg/injection, schedule: Q01DX009 (ip), vehicle: saline) was 104 % of control, the T/C (dose: 2.5 mg/kg/injection, schedule: Q01DX009 (ip), vehicle: saline) was 100 % of control and the T/C (dose: 5.0 mg/kg/injection, schedule: Q01DX009 (ip), vehicle: saline) was 102 % of control.
For `CCC(c1ccc(OC(=O)Cc2ccc(N(CCCl)CCCl)cc2)cc1)C(CC)c1ccc(OC(=O)Cc2ccc(N(CCCl)CCCl)cc2)cc1` (centres undefined), the T/C (dose: 6.25 mg/kg/injection, schedule: Q01DX009 (ip), vehicle: Klucel (hydroxypropylcellulose) (HPC)) was 106 % of control, the T/C [2] was 110 % of control and the T/C [4] was 96 % of control. For the same molecule, the T/C [11] was 88 % of control, the T/C (dose: 64.0 mg/kg/injection, schedule: Q02DX009 (ip), vehicle: saline with Tween-80) was 95 % of control and 98 % of control and the T/C (dose: 128.0 mg/kg/injection, schedule: Q02DX009 (ip), vehicle: saline with Tween-80) was 91 % of control. The T/C (dose: 256.0 mg/kg/injection, schedule: Q02DX009 (ip), vehicle: saline with Tween-80) was 92 % of control.
With `CC[C@H]1CN2CCc3cc(OC)c(OC)cc3[C@@H]2C[C@@H]1C[C@H]1NCCc2c1[nH]c1ccc(O)cc21` the T/C (dose: 0.25 mg/kg/injection, schedule: Q01DX009 (ip), vehicle: Klucel (hydroxypropylcellulose) (HPC)) was 111 % of control, the T/C (dose: 0.5 mg/kg/injection, schedule: Q01DX009 (ip), vehicle: Klucel (hydroxypropylcellulose) (HPC)) was 114 % of control and the T/C (dose: 1.0 mg/kg/injection, schedule: Q01DX009 (ip), vehicle: Klucel (hydroxypropylcellulose) (HPC)) was 123 % of control.
